# Laboratory results published in ChEMBL document CHEMBL1122505, “Pyrimidine and triazine 3-oxide sulfates: a new family of vasodilators” (1983).
# Counter-ions that a name gives are not always drawn.
# Tests used:
# Assay type in all cases: functional, Artery
# Rattus norvegicus [1] = experiment: Average change in mean arterial blood pressure (mmHg) observed at 4 hr after oral administration at a dose of 14 mg/kg in female Sprague-Dawley rats
# Rattus norvegicus [2] = experiment: Average change in mean arterial blood pressure (mmHg) observed at 4 hr after oral administration at a dose of 5 mg/kg in female Sprague-Dawley rats
# Rattus norvegicus [3] = experiment: Average change in mean arterial blood pressure (mmHg) observed at 4 hr after oral administration at a dose of 50 mg/kg in female Sprague-Dawley rats
# Rattus norvegicus [4] = experiment: Average change in mean arterial blood pressure (mmHg) observed at 4 hr after oral administration at a dose of 0.15 mg/kg in female Sprague-Dawley rats
compound,measurement,setting,value
Cc1cc(N2CCOCC2)nc(N)[n+]1OS(=O)(=O)[O-],Delta blood pressure,Rattus norvegicus [1],-37 mmHg
C=CCN(CC=C)c1nc(N)[n+](OS(=O)(=O)[O-])c(N)n1,Delta blood pressure,Rattus norvegicus [2],-21 mmHg
CNc1cc(N)[n+](OS(=O)(=O)[O-])c(N)n1,Delta blood pressure,Rattus norvegicus [3],-8 mmHg
Cc1cc(N2CCCC2)nc(N)[n+]1OS(=O)(=O)[O-],Delta blood pressure,Rattus norvegicus [3],-39 mmHg
Nc1cc(N2CCCCC2)nc(N)[n+]1OS(=O)(=O)[O-] [MINOXIDIL SULFATE],Delta blood pressure,Rattus norvegicus [4],-16 mmHg
